Test results as given in publication PMC6934184, “Selective DNA-PKcs inhibition extends the therapeutic index of localized radiotherapy and chemotherapy” (The Journal of Clinical Investigation, 2019).

Molecular target: T1, PAK6 (Homo sapiens, UniProt Q9NQU5)
T1 construct: purchased Thermo Fisher Scientific (Life Technologies) SelectScreen
Assay: SelectScreen Z'LYTE
Format: biochemical
Outline: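 Percent values come from Thermo SelectScreen profiling of NU5455, combining activity and binding assays. CSF1R was run in Z'LYTE format at Km app ATP, and CAMK1 in Adapta format with ATP listed at 10.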

T1 sequence (Q9NQU5 whole entry): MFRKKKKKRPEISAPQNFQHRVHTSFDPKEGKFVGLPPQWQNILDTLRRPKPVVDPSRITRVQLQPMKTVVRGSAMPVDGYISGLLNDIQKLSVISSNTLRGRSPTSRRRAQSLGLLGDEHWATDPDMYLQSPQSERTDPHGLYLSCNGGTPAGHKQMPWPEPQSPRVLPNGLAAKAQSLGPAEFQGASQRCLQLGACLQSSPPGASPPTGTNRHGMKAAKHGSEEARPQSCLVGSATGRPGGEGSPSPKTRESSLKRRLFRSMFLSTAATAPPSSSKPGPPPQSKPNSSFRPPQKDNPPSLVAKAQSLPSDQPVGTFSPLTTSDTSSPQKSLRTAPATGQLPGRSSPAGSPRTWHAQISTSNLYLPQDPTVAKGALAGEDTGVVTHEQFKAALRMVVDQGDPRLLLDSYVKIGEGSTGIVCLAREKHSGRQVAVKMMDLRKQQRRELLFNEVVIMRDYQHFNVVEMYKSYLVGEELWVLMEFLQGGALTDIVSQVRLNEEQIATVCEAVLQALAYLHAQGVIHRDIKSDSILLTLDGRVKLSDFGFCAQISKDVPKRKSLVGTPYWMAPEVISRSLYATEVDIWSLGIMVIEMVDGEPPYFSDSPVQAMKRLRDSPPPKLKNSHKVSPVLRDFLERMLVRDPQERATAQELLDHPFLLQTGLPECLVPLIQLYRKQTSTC

## CN(C(=O)CN1CCOCC1)c1ccc2sc3c(-c4cccc5c(=O)cc(N6CC7CCC(C6)O7)oc45)cccc3c2c1 [NU5455]
  inhibition at 1 µM: 3%
